# How the values were obtained:
# Experiment in all cases: Kinase profiling (SelectScreen), LanthaScreen Binding
# Conditions in all cases: IA107 at 5 μM
# [1] = molecular target: CASK (Homo sapiens, UniProt O14936)
# Procedure: (§1) Kinase profiling was conducted by the SelectScreen Kinase Profiling Services (Thermo Fisher), using Z′-LYTE, Adapta, or LanthaScreen Eu Kinase Binding Assay for different kinases. The kinome phylogenetic tree was generated using the KinMap web portal.
# [2] = molecular target: TLK1 (Homo sapiens, UniProt Q9UKI8)
# Procedure: as §1
# [3] = molecular target: ICK (Homo sapiens, UniProt Q9UPZ9)
# Procedure: as §1
# [4] = molecular target: BMPR1B (ALK6) (Homo sapiens, UniProt O00238)
# Procedure: as §1
# [5] = molecular target: BRSK2 (Homo sapiens, UniProt Q8IWQ3)
# Procedure: as §1
# [6] = molecular target: MAPK15 (ERK7) (Homo sapiens, UniProt Q8TD08)
# Procedure: as §1
# [7] = molecular target: MAP3K11 (MLK3) (Homo sapiens, UniProt Q16584)
# Procedure: as §1
# [8] = molecular target: STK38 (NDR) (Homo sapiens, UniProt Q15208)
# Procedure: as §1
# [9] = molecular target: TTK (Homo sapiens, UniProt P33981)
# Procedure: as §1
# [10] = molecular target: CAMKK2 (CaMKK beta) (Homo sapiens, UniProt Q96RR4)
# Procedure: as §1
# [11] = molecular target: CDK8/cyclin C (Homo sapiens, UniProt P49336)
# Procedure: as §1
# [12] = molecular target: RIPK2 (Homo sapiens, UniProt O43353)
# Procedure: as §1
# [13] = molecular target: LIMK1 (Homo sapiens, UniProt P53667)
# Procedure: as §1
# [14] = molecular target: MYO3B (MYO3 beta) (Homo sapiens, UniProt Q8WXR4)
# Procedure: as §1
# [15] = molecular target: TGFBR1 (ALK5) (Homo sapiens, UniProt P36897)
# Procedure: as §1
# [16] = molecular target: TNIK (Homo sapiens, UniProt Q9UKE5)
# Procedure: as §1
# [17] = molecular target: ACVR1 (ALK2) (Homo sapiens, UniProt Q04771)
# Procedure: as §1
# [18] = molecular target: STK33 (Homo sapiens, UniProt Q9BYT3)
# Procedure: as §1
# [19] = molecular target: CDC7/DBF4 (Homo sapiens, UniProt O00311)
# Procedure: as §1
# [20] = molecular target: MAP4K1 (HPK1) (Homo sapiens, UniProt Q92918)
# Procedure: as §1
# [21] = molecular target: BMPR2 (Homo sapiens, UniProt Q13873)
# Procedure: as §1
# [22] = molecular target: DDR2 (Homo sapiens, UniProt Q16832)
# Procedure: as §1
# [23] = molecular target: STK32B (YANK2) (Homo sapiens, UniProt Q9NY57)
# Procedure: as §1
# [24] = molecular target: MAP3K14 (NIK) (Homo sapiens, UniProt Q99558)
# Procedure: as §1
# [25] = molecular target: ULK2 (Homo sapiens, UniProt Q8IYT8)
# Procedure: as §1
# Sequence of ULK2 (Q8IYT8 whole entry): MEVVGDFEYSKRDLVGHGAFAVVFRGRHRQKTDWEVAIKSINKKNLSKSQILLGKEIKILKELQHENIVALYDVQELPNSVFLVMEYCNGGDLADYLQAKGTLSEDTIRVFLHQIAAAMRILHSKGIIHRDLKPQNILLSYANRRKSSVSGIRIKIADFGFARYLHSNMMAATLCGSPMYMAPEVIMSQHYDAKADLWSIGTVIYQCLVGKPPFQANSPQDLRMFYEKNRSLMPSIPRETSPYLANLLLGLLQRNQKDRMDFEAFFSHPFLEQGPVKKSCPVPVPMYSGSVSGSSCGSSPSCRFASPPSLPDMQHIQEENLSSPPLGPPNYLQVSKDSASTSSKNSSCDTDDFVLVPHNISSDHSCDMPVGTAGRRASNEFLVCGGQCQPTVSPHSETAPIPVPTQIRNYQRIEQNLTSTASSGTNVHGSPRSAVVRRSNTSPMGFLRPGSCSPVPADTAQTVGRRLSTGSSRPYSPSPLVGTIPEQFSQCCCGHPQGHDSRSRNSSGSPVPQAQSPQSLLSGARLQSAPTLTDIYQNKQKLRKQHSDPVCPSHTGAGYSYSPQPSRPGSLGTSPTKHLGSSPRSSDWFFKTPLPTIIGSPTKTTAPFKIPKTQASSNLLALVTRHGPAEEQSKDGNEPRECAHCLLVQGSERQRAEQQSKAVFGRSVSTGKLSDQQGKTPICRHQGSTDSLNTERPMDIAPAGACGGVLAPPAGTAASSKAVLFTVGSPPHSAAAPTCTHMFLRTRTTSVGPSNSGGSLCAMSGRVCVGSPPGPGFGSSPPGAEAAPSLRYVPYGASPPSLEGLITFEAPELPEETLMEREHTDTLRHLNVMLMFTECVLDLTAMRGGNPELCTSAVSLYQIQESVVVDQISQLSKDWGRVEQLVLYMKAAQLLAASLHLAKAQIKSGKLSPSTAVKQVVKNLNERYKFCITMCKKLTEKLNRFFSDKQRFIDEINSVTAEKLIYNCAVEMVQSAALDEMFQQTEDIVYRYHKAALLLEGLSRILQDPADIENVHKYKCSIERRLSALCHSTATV
# Sequence of RIPK2 (O43353 whole entry): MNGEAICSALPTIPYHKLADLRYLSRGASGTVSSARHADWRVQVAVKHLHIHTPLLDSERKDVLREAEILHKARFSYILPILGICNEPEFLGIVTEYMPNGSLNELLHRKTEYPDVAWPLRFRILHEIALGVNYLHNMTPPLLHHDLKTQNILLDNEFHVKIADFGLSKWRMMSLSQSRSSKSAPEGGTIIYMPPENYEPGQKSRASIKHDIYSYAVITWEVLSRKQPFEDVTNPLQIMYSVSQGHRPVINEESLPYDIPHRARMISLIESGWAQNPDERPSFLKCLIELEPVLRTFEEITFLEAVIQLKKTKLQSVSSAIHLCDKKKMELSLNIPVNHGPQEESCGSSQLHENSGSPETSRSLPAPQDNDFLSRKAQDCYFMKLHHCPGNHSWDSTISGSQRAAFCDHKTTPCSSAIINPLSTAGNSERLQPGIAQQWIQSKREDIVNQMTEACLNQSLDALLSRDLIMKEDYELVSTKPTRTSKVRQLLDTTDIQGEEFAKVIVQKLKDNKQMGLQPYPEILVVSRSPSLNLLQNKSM
# Sequence of TNIK (Q9UKE5 whole entry): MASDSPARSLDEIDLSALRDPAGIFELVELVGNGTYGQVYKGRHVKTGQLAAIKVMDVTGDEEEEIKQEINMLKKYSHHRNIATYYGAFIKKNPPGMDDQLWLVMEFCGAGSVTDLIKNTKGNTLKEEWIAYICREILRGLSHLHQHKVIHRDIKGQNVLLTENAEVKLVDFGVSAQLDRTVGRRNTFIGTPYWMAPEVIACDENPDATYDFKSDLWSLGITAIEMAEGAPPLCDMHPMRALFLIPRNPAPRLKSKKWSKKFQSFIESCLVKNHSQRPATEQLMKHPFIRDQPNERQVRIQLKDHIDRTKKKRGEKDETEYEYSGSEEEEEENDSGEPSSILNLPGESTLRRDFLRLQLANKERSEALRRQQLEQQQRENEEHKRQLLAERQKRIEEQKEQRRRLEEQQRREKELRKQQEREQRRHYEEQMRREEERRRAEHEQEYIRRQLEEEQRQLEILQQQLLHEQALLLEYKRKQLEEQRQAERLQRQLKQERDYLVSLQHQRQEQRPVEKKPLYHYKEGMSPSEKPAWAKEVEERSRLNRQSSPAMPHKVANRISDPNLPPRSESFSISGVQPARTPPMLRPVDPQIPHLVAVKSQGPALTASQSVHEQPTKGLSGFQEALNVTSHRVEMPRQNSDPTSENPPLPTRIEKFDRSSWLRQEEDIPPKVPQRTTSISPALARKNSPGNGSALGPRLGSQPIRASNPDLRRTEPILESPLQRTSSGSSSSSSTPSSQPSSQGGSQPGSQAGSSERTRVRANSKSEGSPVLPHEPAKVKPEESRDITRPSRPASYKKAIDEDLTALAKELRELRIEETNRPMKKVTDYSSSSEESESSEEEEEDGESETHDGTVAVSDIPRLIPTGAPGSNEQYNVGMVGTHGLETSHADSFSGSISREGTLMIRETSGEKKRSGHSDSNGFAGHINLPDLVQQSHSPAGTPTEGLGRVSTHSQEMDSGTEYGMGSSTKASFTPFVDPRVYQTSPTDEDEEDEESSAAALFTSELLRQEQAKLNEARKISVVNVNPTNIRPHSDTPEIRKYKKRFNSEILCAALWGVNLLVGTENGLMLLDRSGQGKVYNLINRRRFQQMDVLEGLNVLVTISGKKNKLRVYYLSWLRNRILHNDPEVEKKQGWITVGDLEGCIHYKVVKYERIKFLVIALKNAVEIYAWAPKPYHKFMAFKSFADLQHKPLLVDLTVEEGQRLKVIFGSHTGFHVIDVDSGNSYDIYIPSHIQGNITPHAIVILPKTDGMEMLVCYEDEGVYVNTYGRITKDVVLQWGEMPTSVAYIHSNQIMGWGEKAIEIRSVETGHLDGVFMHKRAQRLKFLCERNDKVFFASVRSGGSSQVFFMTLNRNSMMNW
# Sequence of TGFBR1 (ALK5) (P36897 34-503): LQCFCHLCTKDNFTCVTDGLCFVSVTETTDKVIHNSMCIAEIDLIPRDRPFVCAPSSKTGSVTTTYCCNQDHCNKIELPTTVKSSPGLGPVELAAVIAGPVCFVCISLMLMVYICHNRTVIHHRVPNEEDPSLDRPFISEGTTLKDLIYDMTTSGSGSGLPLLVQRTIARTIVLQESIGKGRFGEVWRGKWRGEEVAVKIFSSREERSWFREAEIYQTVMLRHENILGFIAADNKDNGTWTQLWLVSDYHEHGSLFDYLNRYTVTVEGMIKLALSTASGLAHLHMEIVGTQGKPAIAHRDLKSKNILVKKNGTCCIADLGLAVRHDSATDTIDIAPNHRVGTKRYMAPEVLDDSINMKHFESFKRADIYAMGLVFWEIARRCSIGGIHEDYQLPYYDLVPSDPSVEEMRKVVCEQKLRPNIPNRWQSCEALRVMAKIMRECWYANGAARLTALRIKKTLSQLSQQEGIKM
# Sequence of TLK1 (Q9UKI8 whole entry): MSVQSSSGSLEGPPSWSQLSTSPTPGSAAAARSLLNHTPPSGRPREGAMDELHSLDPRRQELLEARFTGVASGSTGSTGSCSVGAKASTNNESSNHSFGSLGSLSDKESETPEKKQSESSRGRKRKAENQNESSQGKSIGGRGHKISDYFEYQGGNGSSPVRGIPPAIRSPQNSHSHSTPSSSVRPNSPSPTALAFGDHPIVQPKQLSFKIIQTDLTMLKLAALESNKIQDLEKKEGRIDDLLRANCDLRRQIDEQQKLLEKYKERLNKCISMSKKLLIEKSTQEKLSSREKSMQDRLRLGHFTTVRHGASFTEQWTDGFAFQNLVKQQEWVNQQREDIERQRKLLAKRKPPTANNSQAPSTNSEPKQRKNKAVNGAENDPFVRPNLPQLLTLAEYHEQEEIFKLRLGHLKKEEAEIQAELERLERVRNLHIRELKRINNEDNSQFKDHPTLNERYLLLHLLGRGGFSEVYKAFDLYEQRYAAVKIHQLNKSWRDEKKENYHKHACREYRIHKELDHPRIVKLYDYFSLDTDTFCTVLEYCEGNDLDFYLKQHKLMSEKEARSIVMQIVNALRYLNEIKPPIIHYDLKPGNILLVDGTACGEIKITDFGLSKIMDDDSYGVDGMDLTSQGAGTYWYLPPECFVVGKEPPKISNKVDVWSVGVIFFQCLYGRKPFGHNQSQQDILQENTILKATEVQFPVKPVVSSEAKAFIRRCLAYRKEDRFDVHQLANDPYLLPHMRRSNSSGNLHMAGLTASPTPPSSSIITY
# Sequence of LIMK1 (P53667 whole entry): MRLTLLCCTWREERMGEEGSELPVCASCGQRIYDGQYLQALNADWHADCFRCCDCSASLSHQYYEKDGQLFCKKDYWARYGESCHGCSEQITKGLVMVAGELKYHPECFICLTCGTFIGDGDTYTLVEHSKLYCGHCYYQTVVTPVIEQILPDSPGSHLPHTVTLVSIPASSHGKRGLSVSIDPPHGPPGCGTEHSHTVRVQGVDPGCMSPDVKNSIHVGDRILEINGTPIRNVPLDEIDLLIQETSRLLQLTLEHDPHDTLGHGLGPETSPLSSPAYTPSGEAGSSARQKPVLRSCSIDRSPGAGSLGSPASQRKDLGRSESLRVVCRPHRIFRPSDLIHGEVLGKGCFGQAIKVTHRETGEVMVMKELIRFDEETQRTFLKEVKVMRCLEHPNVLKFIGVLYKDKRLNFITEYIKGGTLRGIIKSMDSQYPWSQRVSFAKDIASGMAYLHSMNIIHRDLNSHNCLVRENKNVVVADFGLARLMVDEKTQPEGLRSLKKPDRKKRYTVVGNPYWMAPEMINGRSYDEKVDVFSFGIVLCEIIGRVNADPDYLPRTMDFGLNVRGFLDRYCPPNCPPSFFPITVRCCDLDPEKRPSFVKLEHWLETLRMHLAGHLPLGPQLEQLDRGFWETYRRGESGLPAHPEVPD
structure (smiles),measurement,setting,value
Cc1c(CCC(=O)O)c2cc(Br)ccc2n1C(=O)c1ccccc1 [IA107],inhibition at 5 µM,[1],-14%
same,inhibition at 5 µM,[2],-12%
same,inhibition at 5 µM,[3],-2%
same,inhibition at 5 µM,[4],12%
same,inhibition at 5 µM,[5],1%
same,inhibition at 5 µM,[6],17%
same,inhibition at 5 µM,[7],-3%
same,inhibition at 5 µM,[8],6%
same,inhibition at 5 µM,[9],6%
same,inhibition at 5 µM,[10],4%
same,inhibition at 5 µM,[11],35%
same,inhibition at 5 µM,[12],0%
same,inhibition at 5 µM,[13],-16%
same,inhibition at 5 µM,[14],-2%
same,inhibition at 5 µM,[15],54%
same,inhibition at 5 µM,[16],8%
same,inhibition at 5 µM,[17],2%
same,inhibition at 5 µM,[18],-4%
same,inhibition at 5 µM,[19],8%
same,inhibition at 5 µM,[20],-2%
same,inhibition at 5 µM,[21],-4%
same,inhibition at 5 µM,[22],-1%
same,inhibition at 5 µM,[23],2%
same,inhibition at 5 µM,[24],0%
same,inhibition at 5 µM,[25],-3%

# From article PMC12475274, “Harnessing indole scaffolds to identify small-molecule IRE1α inhibitors modulating XBP1 mRNA splicing” (Nature Communications, 2025)
